Values of other authors in patent US4127529A, “Novel eicosapeptides, intermediates therefor and pharmaceutical compositions and methods employing said eicosapeptides” (priority 1977, dated 1978).

Legend:
[1] = system: brain opiate receptor sites; settings: natural peptide
[2] = injected directly into the brain of the rat

Substance: H-Tyr-Gly-Gly-Phe-Met-OH [methionine enkephalin]
- binding to partially purified brain opiate receptor sites [1]: binds stereo-specifically
- analgesic activity [2]: only weak analgesic agent of short duration
